# Results as given in patent US20070099232A1, “Ecdysone receptor ligand-binding domain structure” (priority 2003, published 2007).
# What was measured:
# BtEcR = BtEcR competitive binding assay with [3H]-ponasterone A as tracer; set-up: species or system Bemisia tabaci
# Source text: As will be readily understood by persons skilled in this field, the methods of the present invention provide a rational method for designing and selecting compounds which interact with an ecdysone receptor and specifically that of B. tabaci. In the majority of cases these compounds will require further development in order to increase activity. Such further development is routine in this field and will be assisted by the structural information provided in this application and screens employing EcR and optionally USP nucleotide and/or polypeptide sequences. In vitro competitive binding screens compete unlabelled test compounds against a labelled ligand (tracer) to observe if they inhibit the binding of the latter to functional receptor LBDs. In vitro competition binding screens may utilise LBD sequences or D (linker) domain sequences linked to LBD sequences. In vivo cell-based screens employ full-length EcR and optionally full-length USP nucleotide sequences functionally linked to suitable promoters for expression in mammalian, insect or yeast cells containing a suitable reporter gene construct. Alternatively, in vivo cell-based screens may employ the EF or DEF domain encoding regions of EcR and optionally of USP nucleotide sequences functionally linked to nucleotide sequences encoding domains from other transcription factors. In particular, the BtEcR nucleotide sequence (SEQ ID NO 1) and/or polypeptide sequence (SEQ ID NO 2) and optionally BtUSP nucleotide sequence and/or polypeptide sequence or the corresponding EF or DEF domains may be utilised in screens to develop improved compounds derived by rational design employing the B. tabaci EcR/USP crystal structure. It is intended that in particular embodiments the methods of the present invention includes such further developmental steps.
# Biological assays to measure the activity of ecdysone receptor agonists and antagonists are well known in the field. Traditional screens for ecdysone receptor agonists examine candidate compounds for an ability to induce the moulting or pupation of whole insect larvae (Becker, 1941; Cymborowski, 1989), the evagination of imaginal discs (Fristrom J. W. & Yund, 1976) or morphological transformation of the Drosophila BII cell line (Clément et al., 1993). More recent assays use mammalian or other eukaryotic cells that have been co-transfected with a recombinant ecdysone receptor and a reporter gene linked to an appropriate response element Both types of screen can also be reformatted to detect non-agonist ligands (antagonists), which can be recognised by their ability to inhibit the activation the receptor by an agonist provided as a standard component of the assay (Yang et al., 1986; Oberdorster et al., 2001)(Oberdorster et al, 2001). […] In addition, potential agonists and antagonists may be screened for their ability to inhibit the binding of europium-labelled ecdysone receptor ligands to soluble, recombinant ecdysone receptor in a microplate-based format Europium is a lanthanide fluorophore, the presence of which can be measured using time-resolved fluorometry. […] Binding affinity and inhibitor potency may also be measured for candidate inhibitors using biosensor technology. […]
# [1] = system: Choristoneura fumiferana EcR A110P; conditions: single point mutation A110P; cited from earlier work
# [2] = system: Lepidotera versus Diptera; conditions: selectivity at the level of insect orders; cited from earlier work
# [3] = system: whitefly (B. tabaci) receptor; assay: In vitro binding studies employing purified recombinant LBDs (whitefly receptor); set-up: species or system Bemisia tabaci; conditions: unpublished results
# Source text: (§1) Table 3 presents the inter-order variation apparent across a variety of Insecta EcR LBDs for those residues that line the ecdysteroid binding pocket observed in the B. tabaci structure. […] For example, in the hemipteran B. tabaci (resistant to the bisacylhydrazine compounds) residue 272 is methionine, whereas in lepidopteran species (susceptible to bisacylhydrazines) the residue at this position is a smaller valine. Attention has also been drawn to the potential importance of the residue at this position in relation to the control spectrum of bisacylhydrazine insecticides in the communication by Billas et al. (2003) reporting the crystal structure of the lepidopteran Heliothis virescens EcR/USP heterodimeric LBD. It is apparent from Table 3 of the present application that the methionine at position 272 is present in the Hemiptera, Diptera, Orthoptera and Coleoptera while the residue in this position of the Lepidoptera is valine. […] Clearly the response to bisacylhydrazines is not simply dependent on the residue at the position corresponding to 272 in B. tabaci.
# [4] = biological target: T1, dipteran (Lucilia cuprina) receptor (Lucilia cuprina, UniProt O18531); assay: In vitro binding studies employing purified recombinant LBDs (dipteran receptor); conditions: unpublished results
# T1 construct: made in house
# T1 sequence (O18531 442-677 limits assumed): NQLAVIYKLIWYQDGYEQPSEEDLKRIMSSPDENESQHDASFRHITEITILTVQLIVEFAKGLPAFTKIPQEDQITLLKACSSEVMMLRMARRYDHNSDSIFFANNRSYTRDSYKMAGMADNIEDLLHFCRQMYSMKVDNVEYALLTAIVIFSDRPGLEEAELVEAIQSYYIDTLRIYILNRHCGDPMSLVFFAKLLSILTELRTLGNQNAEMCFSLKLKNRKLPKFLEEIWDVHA
# Source text: as §1
# [5] = system: BtEcR/BtUSP heterodimer binding to EcRE DNA; assay: Electrophoretic mobility shift assay (EMSA) of receptor binding to EcRE (hsp27 response element); assay type: biochemical, Bemisia tabaci; conditions: in the presence of 5mM MgCl2; compared to binding without hormone
# Method: DNA binding function was assessed by electrophoretic mobility shift assay (EMSA). For these experiments, EcR and USP proteins were translated as above but using unlabelled methionine. The EcRE probe (hsp27 response element) was prepared by α-^32P labelling 5 pmol of annealed oligo (5′[…]3′ and 5′[…]3′) with Klenow ([…] Labelling Kit, Geneworks). This mix was then phenol/chloroform extracted, ethanol precipitated and resuspended in 100 μl of TE. Binding and electrophoresis were performed as described by (Molloy, 2000). For a 20 μl reaction mix, 2.5 μl of each translated extract was incubated with 8.0 μl of BufferA (20 mM HEPES pH 7.9, 100 mM KCI, 2 mM dithiothreitol (DTT), 1 mM EDTA, 20% (v/v) glycerol), 2 μl of 2% (v/v) NP-40, 1 μl BSA (10 mg/ml), 0.5 μl 2 mg/ml poly (dI-dC).poly(dI-dC), 6 μg single stranded DNA plus or minus 1 μl of 100 mM MgCl2. After 20 minutes at room temperature, 0.05 pmoles of labelled probe was added and the mix was incubated again for 20 minutes. One sample also had the addition of excess (1.25 pmoles) unlabelled EcRE DNA. 10 μl of the mix was analysed by electrophoresis at 4° C., 80 V in a 0.25×TBE, 5% polyacrylamide gel. After fixing and drying, radioactive species were visualized by the Molecular Dynamics Phosphorimaging system. […]
# [6] = biological target: recombinant B. tabaci receptor LBD (BtEcR/BtUSP heterodimer); assay: Equilibrium binding studies with [3H]-ponasterone A as ligand; set-up: species or system Bemisia tabaci; conditions: by direct curve fitting, recombinant heterodimeric LBD
# Method: Pilot-scale expression of recombinant heterodimeric BtEcR-BtUSP LBD was achieved by infection of suspension cultures of Sf9, Sf21 and or Hi-5 insect cells in spinner flasks or Schott bottles on a shaker platform maintained at 27° C. Insect cells infected with the virus engineered to express BtEcR/BtUSP ligand-binding domain were shown by gel electrophoresis to contain the expressed polypeptides corresponding to the two tagged domains.
compound,measurement,setting,value
O=C(CSC1NCCN1)c1ccccc1 [IV],binding in BtEcR competitive binding assay,BtEcR,weak-moderate binding
CCc1c(OC)cccc1C(=O)NN(C(=O)c1cc(C)cc(C)c1)C(C)(C)C [RG-102240],effect of A110P point mutation on response of receptor to ligand,[1],without affecting response
CCc1ccc(C(=O)NN(C(=O)c2cc(C)cc(C)c2)C(C)(C)C)cc1 [RH5992],effectiveness against Lepidotera relative to Diptera,[2],two to three orders of magnitude more effective
same,affinity of receptor for compound,[3],only very low affinity
same,binding in BtEcR competitive binding assay,BtEcR,negligible binding
same,affinity of receptor for compound,[4],significant affinity
O=C1OC(c2cccs2)=N/C1=C/c1ccccc1 [compound III],binding in BtEcR competitive binding assay,BtEcR,weak-moderate binding
CC(C)(C)C(=O)N1N=C(c2ccccc2)OC1(C)c1ccc(F)cc1 (centres unmarked) [compound II],binding in BtEcR competitive binding assay,BtEcR,negligible binding
CC(C)(C)N(NC(=O)c1ccccc1)C(=O)c1ccccc1 [compound I],binding in BtEcR competitive binding assay,BtEcR,negligible binding
CC(C)CC[C@@H](O)[C@](C)(O)[C@H]1CC[C@@]2(O)C3=CC(=O)[C@@H]4C[C@@H](O)[C@@H](O)C[C@]4(C)[C@H]3CC[C@]12C [ponasterone A],effect of hormone on binding of receptor heterodimer to EcRE,[5],clearly enhanced binding
same,Kd,[6],1.21 ± 0.17 nM
